For the experiment, the target named is SIK2 (Homo sapiens, UniProt Q9H0K1). Kind of experiment: SIK2 Enzymatic Assay High Version 2 (High ATP). The following applies: enzyme 6 nM, 6 mM ATP and 400 μM HDAC5tide (each 2× final concentration); 30 minutes pre-incubation, 2 hours; ADP-Glo Max luminescence; read-out: SIK2 high ATP IC50 (μM) (Test Example 2). Type of experiment: biochemical. In short, it runs like this: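 At room temperature, enzyme (6 nM, 2× final) was preincubated with compound for 30 min, then 6 mM ATP and 400 μM HDAC5tide (both 2× final) were added for 2 h. ADP formed was measured by ADP-Glo Max (2 h reagent, 1 h detection) using luminescence.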
SIK2, sequence (Q9H0K1 whole entry, species assumed): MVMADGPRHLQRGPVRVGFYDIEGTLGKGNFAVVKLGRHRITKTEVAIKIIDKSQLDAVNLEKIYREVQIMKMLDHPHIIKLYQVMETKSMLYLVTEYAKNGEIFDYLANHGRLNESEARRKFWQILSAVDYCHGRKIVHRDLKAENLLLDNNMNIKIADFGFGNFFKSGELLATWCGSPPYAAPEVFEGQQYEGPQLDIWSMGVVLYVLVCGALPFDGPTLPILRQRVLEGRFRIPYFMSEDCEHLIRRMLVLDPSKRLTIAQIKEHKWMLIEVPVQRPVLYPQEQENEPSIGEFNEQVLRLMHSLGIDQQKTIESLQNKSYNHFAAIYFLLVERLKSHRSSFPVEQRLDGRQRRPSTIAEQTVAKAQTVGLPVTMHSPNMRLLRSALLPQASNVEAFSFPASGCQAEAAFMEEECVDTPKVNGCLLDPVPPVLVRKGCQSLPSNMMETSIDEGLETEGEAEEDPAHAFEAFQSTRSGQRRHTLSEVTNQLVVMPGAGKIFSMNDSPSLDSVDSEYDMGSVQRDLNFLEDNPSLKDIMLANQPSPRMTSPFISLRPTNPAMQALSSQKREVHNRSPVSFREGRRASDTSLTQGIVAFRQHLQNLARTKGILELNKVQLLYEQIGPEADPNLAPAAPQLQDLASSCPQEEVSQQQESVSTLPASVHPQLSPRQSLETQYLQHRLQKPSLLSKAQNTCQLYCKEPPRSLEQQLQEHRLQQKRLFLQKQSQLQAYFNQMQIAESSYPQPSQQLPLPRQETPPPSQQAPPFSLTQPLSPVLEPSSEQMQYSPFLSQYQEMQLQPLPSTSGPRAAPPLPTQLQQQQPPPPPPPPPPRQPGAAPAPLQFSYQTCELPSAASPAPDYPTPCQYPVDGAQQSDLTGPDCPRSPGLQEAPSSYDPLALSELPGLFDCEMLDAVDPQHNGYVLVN
In general terms: ADP-Glo turns the ADP formed in a reaction into a luminescent signal.

These results are taken from patent US20240158392A1 (Janssen Biotech, Inc., priority 2021, published 2024).

Molecules are shown by their SMILES.

By IC50 is commonly meant the point on the concentration scale where inhibition reaches its midpoint. Regarding `Cc1cc(-c2ccn3nc(Nc4cc(C)nc(C)n4)cc3c2)c(OC[C@]2(O)CCCOC2)cn1` (single isomer, unassigned) [Example 608, (*S)-3-[[4-[2-[(2,6-dimethylpyrimidin-4-yl)amino]pyrazolo[1,5-a]pyridin-5-yl]-6-methyl-3-pyridyl]oxymethyl]tetrahydropyran-3-ol], the half-maximal inhibitory concentration (IC50) came out at 0.0922 µM. The figure for `Cc1cc(-c2ccn3nc(Nc4cc(C)nc(C)n4)cc3c2)c(O[C@H]2CCS(=O)(=O)NC2)cn1` (single isomer, unassigned) [Example 610, (*S)—N-(2,6-dimethylpyrimidin-4-yl)-5-[5-(1,1-dioxothiazinan-4-yl)oxy-2-methyl-4-pyridyl]pyrazolo[1,5-a]pyridin-2-amine] is 0.0829 µM; for `Cc1cc(Nc2cc3cc(-c4cc(O[C@H](C)C#N)ncc4OCC(C)(C)C#N)ccn3n2)nc(C)n1` (single isomer, unassigned) [Example 680, (*R)-3-[[6-(1-cyanoethoxy)-4-[2-[(2,6-dimethylpyrimidin-4-yl)amino]pyrazolo[1,5-a]pyridin-5-yl]-3-pyridyl]oxy]-2,2-dimethyl-propanenitrile] it is 0.0317 µM; for `Cc1cc(Nc2cc3cc(-c4cc(O[C@@H](C)C#N)ncc4OCC(C)(C)C#N)ccn3n2)nc(C)n1` (single isomer, unassigned) [Example 681, (*S)-3-[[6-(1-cyanoethoxy)-4-[2-[(2,6-dimethylpyrimidin-4-yl)amino]pyrazolo[1,5-a]pyridin-5-yl]-3-pyridyl]oxy]-2,2-dimethyl-propanenitrile] it is 0.0347 µM. The figure for `C[C@@H](C#N)Oc1cc(-c2ccn3nc(NC(=O)C4CC4)cc3c2)c(OCC(C)(C)C#N)cn1` (single isomer, unassigned) [Example 726, (*S)—N-[5-[2-(1-cyanoethoxy)-5-(2-cyano-2-methyl-propoxy)-4-pyridyl]pyrazolo[1,5-a]pyridin-2-yl]cyclopropanecarboxamide] is 0.00251 µM; for `Cc1cc(Nc2cc3cc(-c4cc(OC(F)F)ncc4OC[C@@H]4CC(=O)NC4(C)C)ccn3n2)nc(C)n1` (single isomer, unassigned) [Example 731] it is 0.00997 µM; for `Cc1cc(Nc2cc3cc(-c4cc(OC(F)F)ncc4OC[C@H]4CC(=O)NC4(C)C)ccn3n2)nc(C)n1` (single isomer, unassigned) [Example 732, (*S)-4-[[6-(difluoromethoxy)-4-[2-[(2,6-dimethylpyrimidin-4-yl)amino]pyrazolo[1,5-a]pyridin-5-yl]-3-pyridyl]oxymethyl]-5,5-dimethyl-pyrrolidin-2-one] it is 0.00164 µM. Regarding `Cc1cc(Nc2cc3cc(-c4cc(OC(F)F)ncc4OC[C@@H]4CC(=O)NC4(C)C)ccn3n2)nc(C)n1` (single isomer, unassigned) [Example 738, (*R)-4-[[6-(difluoromethoxy)-4-[2-[(2,6-dimethylpyrimidin-4-yl)amino]pyrazolo[1,5-a]pyridin-5-yl]-3-pyridyl]oxymethyl]-5,5-dimethyl-pyrrolidin-2-one], the IC50 worked out at 0.00304 µM.

For the molecule `Cc1cc(Nc2cc3cc(-c4cc(OC(F)F)ncc4OC[C@H]4CC(=O)NC4(C)C)ccn3n2)nc(C)n1` (single isomer, unassigned) [Example 739, (*S)-4-[[6-(difluoromethoxy)-4-[2-[(2,6-dimethylpyrimidin-4-yl)amino]pyrazolo[1,5-a]pyridin-5-yl]-3-pyridyl]oxymethyl]-5,5-dimethyl-pyrrolidin-2-one], the half-inhibitory concentration (IC50) is 0.00119 µM. The figure for `Cc1cc(Nc2cc3cc(-c4cc(OC(F)F)ncc4OCC(C)(N)C(F)(F)F)ccn3n2)nc(C)n1` (single isomer, unassigned) [Example 755, (*R)-5-[5-(2-amino-3,3,3-trifluoro-2-methyl-propoxy)-2-(difluoromethoxy)-4-pyridyl]-N-(2,6-dimethylpyrimidin-4-yl)pyrazolo[1,5-a]pyridin-2-amine] is 0.00215 µM.
